Measured values from patent US7192929B2, “Peptides effective in the treatment of tumors and other conditions requiring the removal or destruction of cells” (Nymox Corporation, priority 2001, dated 2007).
Ends that are not written are not given here.

Experiments:
[1] = system: glioma and neuroblastoma cell cultures; settings: cited from earlier work
[2] = system: normal rodent muscle tissue, subcutaneous connective tissue, and dermis; settings: cited from earlier work
[3] = system: human and non-human origin tumors, including mammary carcinoma, skin carcinoma and papilloma, colon carcinoma, glioma of brain; settings: variety of human and non-human origin tumors in rodent models; cited from earlier work
[4] = system: muscle tissue, subcutaneous connective tissue, and dermis; type: in vivo, rat; settings: for effect on tissue at sites of injection (histopathology): normal rats, skin, subcutaneous and skeletal muscle injection, in saline, 0.1–1 mg/mL, sacrificed at 24 hours
Description: Four normal rats were injected in the skin and subcutaneously, each in four different foci, and in extremity skeletal muscle, each in two different foci, with NTP peptide #7 in saline in quantities of […] at concentrations of 0.1–1 mg/mL delivered from plastic syringes through stainless steel 26 gauge needles.
The individual foci of infiltration were excised, fixed in 10% formalin, embedded in paraffin, and stained and examined by standard histopathological methods.
The controls received saline alone.
Rats were injected in the skin and subcutaneously as in Example 1 above, except they were injected with NTP peptide #14.
Tissues were excised, fixed in 10% formalin, embedded in paraffin, and stained and examined by standard histopathological methods.
The controls were the same as Example 1.

[5] = system: prostate; test: Intraprostatic infusion in rats, histology of prostate gland; type: in vivo, rat; settings: 300 μl of 1 mg/mL in PBS pH 7.4 (1.0 mg/kg), sacrificed after 72 hours
Description: Four rats were anesthetized with ether and given NTP peptide #7 by intraprostatic infusion. The injections consisted of 300 μl of NTP peptide #7 1 mg/mL in PBS pH 7.4. (1.0 mg/kg). Controls received injections of PBS alone or no injection. Rats were painlessly sacrificed after 72 hours. Prostate glands were dissected, fixed in 10% buffered formalin for 24 hours, embedded in paraffin, sectioned, and stained with H & E. For each animal the entire prostate gland was embedded and sectioned. All stained sections were examined histologically.
Normal rats were injected in the prostate as in the above Example 2, except they were injected with NTP peptide #17. Rats were painlessly sacrificed after 72 hours and their prostate glands were examined as in Example 2.

Row | Substance | effect on tissue at sites of injection (histopathology) [4] | effect on prostate tissue at sites of injection (histology) [5] | further results
1 | AD7c-NTP protein: ˜41 kD membrane associated phosphoprotein, a neural thread protein; sequence in FIG. 1 |  |  | causing cell death in vitro [1]: effective agent for causing cell death; causing cell death in vivo in normal tissue [2]: effective agent for causing cell death; causing cell death in vivo in tumors [3]: effective agent for causing cell death
2 | LSLPSSWDYG [NTP peptide #7] | necrosis of tissue at the injection sites | necrosis of tissue at the injection sites with loss of glandular epithelium, flattening and atrophy | spread of necrosis beyond the site of injection ([4]; rat, in vivo, sc): did not appear to spread far beyond the site of injection
3 | WDYRRFIFNFL [NTP peptide #14, …; AD7c-NTP p241–245 + AD7c-NTP p197–202] | cell death and necrosis of tissue at the injection sites |  | 
4 | PASASPVAGITGM [NTP peptide #17, …; AD7c-NTP p31–43] |  | significant cell loss and atrophy in the prostate | 
